How the values were obtained:
Type in all cases: cell-based
[1] = tested on: breast cancer; test: Anticancer testing, inhibition on breast cancer, medium containing 10 mM glutathione; details: 100 μM solution
[2] = tested on: colon cancer cells; test: Anticancer testing, inhibition of colon cancer cells, medium containing 10 mM glutathione; details: 100 μM
[3] = tested on: cervical cancer cells; test: Anticancer testing, inhibition of cervical cancer cells, 5% foetal calf serum medium; details: 5% foetal calf serum as medium

In the case of `CSCCCc1nccn1C.O=C([O-])C(=O)[O-].[Pt+2]` [Example 6, oxalato(1-methyl-2-methylthiopropylimidazole)platinum(II)], the “inhibition on breast cancer” value [1] is reported as 72%, the “inhibition of colon cancer cells” value [2] is reported as 85% and the “percentage inhibition on cervical cancer cells” value (shortened to “percentage inhibition”) ([3]; 10 μM solution) is reported as 88.6%. The “percentage inhibition” value ([3]; 100 μM solution) was 97.7%.
For `N.N.[Cl][Pt][Cl]` [cisplatin], the “inhibition on breast cancer” value [1] was 10%, the “inhibition of colon cancer cells” value [2] was 48% and the “percentage inhibition” value ([3]; 10 μM solution) was 85.4%. For the same compound, the “percentage inhibition” value ([3]; 100 μM solution) was 95.3%.
